pEC50: −log10 of the molar value.
The compounds below were run on M17-TAU P301L cells (assay: Tau-induced toxicity experiment: LDH leakage of retinoic acid incubated M17-TAU P301L cells). Settings: Homo sapiens, Neuroblastoma cell, 168 h; reduction of LDH activity of retinoic acid incubated M17-TAU P301L neuroblastoma cells; 7 days incubation; Promega Cytotox 96 assay.
Type: cell-based
Excerpt: A TAU expression plasmid was constructed by sub-cloning the cDNA of human TAU-P301L (encoding for TAU with proline 301 substituted by a leucine residue) into mammalian expression vector pcDNA3.1 resulting in plasmid pcDNA3.1-TAU P301L. Plasmids pcDNA3.1 and pcDNA3.1-TAU P301L were transfected to human neuroblastoma cells ([…]; ATCC No. CRL-2267) and independent clonal lines with the plasmids stably integrated into the genome were selected. […] Expression of the TAU P301L genes in the cell lines was confirmed by Western analysis.
In degenerated or dead cells lactate dehydrogenase (LDH) is leaked out of the cells into the extracellular environment due to a loss of plasma-membrane integrity. This principle was used to determine cytotoxicity by quantifying the level of leaked LDH into the growth medium.
The detailed method for determining TAU cytotoxicity was as follows: From appropriate precultures of M17-3.1 and M17-TAU(P301L) cells were seeded at 2500 cells/cm2 in Optimem Reduced Serum without phenol red (Gibco, Cat. 31985-047) supplemented with 1% fetal calf serum, 1 mM sodium pyruvate, 1× non-essential amino acids, 500 μg/ml G418 0.5× antibiotic/antimycotic. After 3 h of incubation at 37° C./5% CO2 1 volume of Optimem Reduced Serum (same as described above; except without fetal calf serum) supplemented with 2.5 μM retinoic acid (RA) was added. The cells were further incubated for 7 days. Subsequently, LDH activity was determined using Promega Cytotox 96 Non-Radioactive cytotoxicity assay, (Cat. G1780) according the supplier's instructions.
The M17-TAU P301L cell line made it possible to assess the ability of novel compounds to counteract TAU cytotoxicity. […] These measurements were used to calculate EC50 values of table 2.
Exemplary compounds of the present invention are shown in table 2, with their chemical name and their EC50 value (expressed in nM) as determined from example 75 in the Tau-induced toxicity experiment.
Compound `O=C(NCCc1c[nH]c2ccc(Cl)cc12)c1ccc(-c2ccc(C(F)(F)F)cc2)cc1` [Cpd074, N-(2-(5-chloro-1H-indol-3-yl)ethyl)-4′-(trifluoromethyl)biphenyl-4-carboxamide] has a pEC50 of 6.70.
Work on `Cc1ccccc1-c1ccccc1C(=O)NCCc1c[nH]c2ccc(Cl)cc12` [Cpd015, N-(2-(5-chloro-1H-indol-3-yl)ethyl)-2′-methylbiphenyl-2-carboxamide] yielded a pEC50 of 6.42.
`O=C(NCCc1c[nH]c2ccc(Cl)cc12)c1ccc(-c2cccc(C(F)(F)F)c2)cc1` [Cpd066, N-(2-(5-chloro-1H-indol-3-yl)ethyl)-3′-(trifluoromethyl)biphenyl-4-carboxamide] showed a pEC50 of 7.04.
`N#Cc1ccccc1-c1ccc(C(=O)NCCc2c[nH]c3ccc(Cl)cc23)cc1` [Cpd044, N-(2-(5-chloro-1H-indol-3-yl)ethyl)-2′-cyanobiphenyl-4-carboxamide] gave a pEC50 of 7.12.
With `O=C(NCCc1c[nH]c2ccc(Cl)cc12)c1ccccc1-c1ccccc1Cl` [Cpd054, 2′-chloro-N-(2-(5-chloro-1H-indol-3-yl)ethyl)biphenyl-2-carboxamide] the pEC50 was 6.77.
For `COc1cccc(-c2ccccc2C(=O)NCCc2c[nH]c3ccc(Cl)cc23)c1` [Cpd029, N-(2-(5-chloro-1H-indol-3-yl)ethyl)-3′-methoxybiphenyl-2-carboxamide], the pEC50 was 6.28.
Work on `O=C(NCCc1c[nH]c2ccc(Cl)cc12)c1ccc(-c2ccccc2)nn1` [Cpd075, N-(2-(5-chloro-1H-indol-3-yl)ethyl)-6-phenylpyridazine-3-carboxamide] yielded a pEC50 of 7.09.
`CCOC(=O)c1cnn(-c2ccc(C(=O)NCCc3c[nH]c4ccc(C)cc34)cc2)c1N` [Cpd005, ethyl 5-amino-1-(4-(2-(5-methyl-1H-indol-3-yl)ethylcarbamoyl)phenyl)-1H-pyrazole-4-carboxylate] gave a pEC50 of 6.53.
`N#Cc1cccc(-c2cccc(C(=O)NCCc3c[nH]c4ccc(Cl)cc34)c2)c1` [Cpd049, N-(2-(5-chloro-1H-indol-3-yl)ethyl)-3′-cyanobiphenyl-3-carboxamide] gave a pEC50 of 7.21.
Work on `O=C(NCCc1c[nH]c2ccc(Cl)cc12)c1ccccc1-c1ccccc1` [Cpd008, N-(2-(5-chloro-1H-indol-3-yl)ethyl)biphenyl-2-carboxamide] yielded a pEC50 of 6.60.
`N#Cc1ccccc1-c1cccc(C(=O)NCCc2c[nH]c3ccc(Cl)cc23)c1` [Cpd043, N-(2-(5-chloro-1H-indol-3-yl)ethyl)-2′-cyanobiphenyl-3-carboxamide] was tested, and the pEC50 was 6.77.
In the case of `N#Cc1ccc(-c2cccc(C(=O)NCCc3c[nH]c4ccc(Cl)cc34)c2)cc1` [Cpd052, N-(2-(5-chloro-1H-indol-3-yl)ethyl)-4′-cyanobiphenyl-3-carboxamide], the pEC50 was 6.95.
With `O=C(NCCc1c[nH]c2ccc(Cl)cc12)c1cccc(-c2ccc(Cl)cc2)c1` [Cpd060, 4′-chloro-N-(2-(5-chloro-1H-indol-3-yl)ethyl)biphenyl-3-carboxamide] the pEC50 was 6.80.
Compound `N#Cc1ccc(-c2ccccc2C(=O)NCCc2c[nH]c3ccc(Cl)cc23)cc1` [Cpd051, N-(2-(5-chloro-1H-indol-3-yl)ethyl)-4′-cyanobiphenyl-2-carboxamide] has a pEC50 of 6.49.
Work on `COc1ccc(-c2cccc(C(=O)NCCc3c[nH]c4ccc(Cl)cc34)c2)cc1` [Cpd033, N-(2-(5-chloro-1H-indol-3-yl)ethyl)-4′-methoxybiphenyl-3-carboxamide] yielded a pEC50 of 6.65.
`Cc1ccc(-c2ccc(C(=O)NCCc3c[nH]c4ccc(Cl)cc34)cc2)cc1` [Cpd023, N-(2-(5-chloro-1H-indol-3-yl)ethyl)-4′-methylbiphenyl-4-carboxamide] gave a pEC50 of 6.63.
With `Cc1cccc(C)c1-c1cccc(C(=O)NCCc2c[nH]c3ccc(Cl)cc23)c1` [Cpd070, N-(2-(5-chloro-1H-indol-3-yl)ethyl)-2′,6′-dimethylbiphenyl-3-carboxamide] the pEC50 was 6.22.
For `COc1ccc(-c2ccc(C(=O)NCCc3c[nH]c4ccc(Cl)cc34)cc2)cc1` [Cpd034, N-(2-(5-chloro-1H-indol-3-yl)ethyl)-4′-methoxybiphenyl-4-carboxamide], the pEC50 was 7.04.

Source: US9284271B2, “Compounds for the treatment of neurodegenerative diseases” (Katholieke Universiteit Leuven, K.U. Leuven R&D, priority 2010, dated 2016)
